From patent US6352958B1, “Cycloimido-substituted benzofused heterocyclic herbicides” (FMC Corporation, priority 1997, dated 2002)

Columns and labels:
Assay type in all cases: in vivo
[1] = system: soybean (Glycine max var. Winchester); test: Preemergence herbicidal activity, soybean; conditions: Rate of Application 0.3 Kg/Ha, examined after 12-17 days
[2] = system: wheat (Triticum aestivum var. Lew); test: Preemergence herbicidal activity, wheat; conditions: Rate of Application 0.3 Kg/Ha, examined after 12-17 days
[3] = system: field corn (Zea mays var. Pioneer 3732); test: Preemergence herbicidal activity, corn; conditions: Rate of Application 0.3 Kg/Ha, examined after 12-17 days
[4] = system: velvetleaf (Abutilon theophrasti); test: Preemergence herbicidal activity, velvetleaf; conditions: Rate of Application 0.3 Kg/Ha, examined after 12-17 days
[5] = system: morningglory (Ipomea lacunosa or Ipomea hederacea); test: Preemergence herbicidal activity, morningglory; conditions: Rate of Application 0.3 Kg/Ha, examined after 12-17 days
[6] = system: common chickweed (Stellaria media); test: Preemergence herbicidal activity, chickweed; conditions: Rate of Application 0.3 Kg/Ha, examined after 12-17 days
[7] = system: common cocklebur (Xanthium strumarium L.); test: Preemergence herbicidal activity, cocklebur; conditions: Rate of Application 0.3 Kg/Ha, examined after 12-17 days
[8] = system: blackgrass (Aloepecurus myosuroides); test: Preemergence herbicidal activity, blackgrass; conditions: Rate of Application 0.3 Kg/Ha, examined after 12-17 days
[9] = system: green foxtail (Setaria viridis); test: Preemergence herbicidal activity, green foxtail; conditions: Rate of Application 0.3 Kg/Ha, examined after 12-17 days
[10] = system: Johnsongrass (Sorghum halepense); test: Preemergence herbicidal activity, johnsongrass; conditions: Rate of Application 0.3 Kg/Ha, examined after 12-17 days
[11] = system: soybean (Glycine max var. Winchester); test: Postemergence herbicidal activity, soybean; conditions: rate of application 0.3 Kg/Ha, rated after 12-17 days
[12] = system: wheat (Triticum aestivum var. Lew); test: Postemergence herbicidal activity, wheat; conditions: rate of application 0.3 Kg/Ha, rated after 12-17 days
[13] = system: field corn (Zea mays var. Pioneer 3732); test: Postemergence herbicidal activity, corn; conditions: rate of application 0.3 Kg/Ha, rated after 12-17 days
[14] = system: velvetleaf (Abutilon theophrasti); test: Postemergence herbicidal activity, velvetleaf; conditions: rate of application 0.3 Kg/Ha, rated after 12-17 days
[15] = system: morningglory (Ipomea lacunosa or Ipomea hederacea); test: Postemergence herbicidal activity, morningglory; conditions: rate of application 0.3 Kg/Ha, rated after 12-17 days
[16] = system: common cocklebur (Xanthium strumarium L.); test: Postemergence herbicidal activity, cocklebur; conditions: rate of application 0.3 Kg/Ha, rated after 12-17 days
[17] = system: blackgrass (Aloepecurus myosuroides); test: Postemergence herbicidal activity, blackgrass; conditions: rate of application 0.3 Kg/Ha, rated after 12-17 days
Protocol: The benzofused heterocyclic compounds of this invention were tested for pre- and postemergence herbicidal activity using a variety of crops and weeds. The test plants included soybean (Glycine max var. Winchester), field corn (Zea mays var. Pioneer 3732), wheat (Triticum aestivum var. Lew), morningglory (Ipomea lacunosa or Ipomea hederacea), velvetleaf (Abutilon theophrasti), green foxtail (Setaria viridis), Johnsongrass (Sorghum halepense), blackgrass (Aloepecurus myosuroides), common chickweed (Stellaria media), and common cocklebur (Xanthium strumarium L.).
For preemergence testing, two disposable fiber flats (8 cm×15 cm×25 cm) for each rate of application of each candidate herbicide were filled to an approximate depth of 6.5 cm with steam-sterilized sandy loam soil. The soil was leveled and impressed with a template to provide five evenly spaced furrows 13 cm long and 0.5 cm deep in each flat. Seeds of soybean, wheat, corn, green foxtail, and johnsongrass were planted in the furrows of the first flat, and seeds of velvetleaf, morningglory, common chickweed, cocklebur, and blackgrass were planted in the furrows of the second flat. The five-row template was employed to firmly press the seeds into place. A topping soil of equal portions of sand and sandy loam soil was placed uniformly on top of each flat to a depth of approximately 0.5 cm. Flats for postemergence testing were prepared in the same manner except that they were planted 9-14 days prior to the preemergence flats and were placed in a greenhouse and watered, thus allowing the seeds to germinate and the foliage to develop.
In both pre- and postemergence tests, a stock solution of the candidate herbicide was prepared by dissolving 0.27 g of the compound in 20 mL of water/acetone (50/50) containing 0.5% v/v sorbitan monolaurate. For an application rate of 3000 g/ha of herbicide a 10 mL portion of the stock solution was diluted with water/acetone (50/50) to 45 mL.
The preemergence flats were initially subjected to a light water spray. The four flats were placed two by two along a conveyor belt (i.e., the two preemergence followed by the two postemergence flats). The conveyor belt fed under a spray nozzle mounted about ten inches above the post-emergent foliage. The preemergent flats were elevated on the belt so that the soil surface was at the same level below the spray nozzle as the foliage canopy of the postemergent plants. The spray of herbicidal solution was commenced and once stabilized, the flats were passed under the spray at a speed to receive a coverage equivalent of 100 L/ha. At this coverage the application rates are those shown in the above table for the individual herbicidal solutions. The preemergence flats were watered immediately thereafter, placed in the greenhouse and watered regularly at the soil surface. The postemergence flats were immediately placed in the green-house and not watered until 24 hours after treatment with the test solution. Thereafter they were regularly watered at ground level. After 12-17 days the plants were examined and the phytotoxicity data were recorded.
Phytotoxicity data were taken as percent control. Percent control was determined by a method similar to the 0 to 100 rating system disclosed in “Research Methods in Weed Science,” 2nd ed., B. Truelove, Ed.; Southern Weed Science Society; Auburn University, Auburn, Ala., 1977.

[18] = system: green foxtail (Setaria viridis); test: Postemergence herbicidal activity, green foxtail; conditions: rate of application 0.3 Kg/Ha, rated after 12-17 days
[19] = system: Johnsongrass (Sorghum halepense); test: Postemergence herbicidal activity, johnsongrass; conditions: rate of application 0.3 Kg/Ha, rated after 12-17 days

SMILES | PREEMERGENCE HERBICIDAL ACTIVITY (% CONTROL) SOY [1] | PREEMERGENCE HERBICIDAL ACTIVITY (% CONTROL) WHT [2] | PREEMERGENCE HERBICIDAL ACTIVITY (% CONTROL) CRN [3] | PREEMERGENCE HERBICIDAL ACTIVITY (% CONTROL) ABUTH [4] | PREEMERGENCE HERBICIDAL ACTIVITY (% CONTROL) IPOSS [5] | PREEMERGENCE HERBICIDAL ACTIVITY (% CONTROL) STEME [6] | PREEMERGENCE HERBICIDAL ACTIVITY (% CONTROL) XANPE [7] | PREEMERGENCE HERBICIDAL ACTIVITY (% CONTROL) ALOMY [8] | PREEMERGENCE HERBICIDAL ACTIVITY (% CONTROL) SETVI [9] | PREEMERGENCE HERBICIDAL ACTIVITY (% CONTROL) SORHA [10] | Postemergence herbicidal activity (% control) SOY [11] | Postemergence herbicidal activity (% control) WHT [12] | Postemergence herbicidal activity (% control) CRN [13] | Postemergence herbicidal activity (% control) ABUTH [14] | Postemergence herbicidal activity (% control) IPOSS [15] | Postemergence herbicidal activity (% control) XANPE [16] | Postemergence herbicidal activity (% control) ALOMY [17] | Postemergence herbicidal activity (% control) SETVI [18] | Postemergence herbicidal activity (% control) SORHA [19]
Cn1c(C(F)(F)F)cc(=O)n(-c2c(F)cc(Cl)c3oc(NS(C)(=O)=O)nc23)c1=O [Compound 42] | 0% | 10% | 0% | 100% | 60% | 30% | 20% | 50% | 30% | 0% | 65% | 30% | 60% | 90% | 60% | 50% | 40% | 100% | 20%
Cn1c(C(F)(F)F)cc(=O)n(-c2c(F)cc(Cl)c3nc(CCc4ccccc4)[nH]c23)c1=O [Compound 379] | 100% | 50% | 70% | 100% | 100% |  | 100% | 80% | 100% | 95% | 95% | 80% | 100% | 100% | 100% | 100% | 70% | 100% | 100%
Cn1c(C(F)(F)F)cc(=O)n(-c2c(F)cc(Cl)c3nc(CCCc4ccccc4)[nH]c23)c1=O [Compound 380] | 80% | 35% | 20% | 100% | 100% |  | 80% | 90% | 100% | 70% | 95% | 30% | 95% | 100% | 100% | 100% | 70% | 100% | 80%
Cn1c(C(F)(F)F)cc(=O)n(-c2c(F)cc(Cl)c3nc(Cc4ccccc4Cl)[nH]c23)c1=O [Compound 381] | 100% | 40% | 80% | 100% | 100% |  | 100% | 90% | 100% | 80% | 95% | 40% | 95% | 100% | 100% | 100% | 100% | 100% | 100%
Cn1c(C(F)(F)F)cc(=O)n(-c2c(F)cc(Cl)c3nc(Cc4cccc(Cl)c4)[nH]c23)c1=O [Compound 382] | 60% | 45% | 30% | 100% | 70% |  | 60% | 90% | 95% | 80% | 80% | 40% | 100% | 100% | 100% | 100% | 80% | 90% | 80%
Cn1c(C(F)(F)F)cc(=O)n(-c2c(F)cc(Cl)c3nc(Cc4ccc(Cl)cc4)[nH]c23)c1=O [Compound 383] | 80% | 40% | 20% | 100% | 60% |  | 70% | 80% | 75% | 55% | 95% | 40% | 95% | 100% | 95% | 100% | 60% | 95% | 70%
